In the supplement of paper PMC8960247:
Where a name gives a salt, the structure may show the parent alone. ± gives the standard error.

Tested on: 621-102 (TSC2-deficient)
Assay: relative viability vs DMSO; higher = less cytotoxic
Settings: 0.001 µM; serum: 10% FBS; 72 h
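Further: immortalized renal angiomyolipoma cells stably carrying empty vector or TSC2, dosed in 384-well plates in DMEM, viability normalized to vehicle-treated wells within each plate.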

`Nc1cc(C(F)(F)F)c(-c2cc(N3CCOCC3)nc(N3CCOCC3)n2)cn1` [BKM120 (NVP-BKM120)] and `Cc1nc(N)sc1-c1ccnc(Nc2ccc(N3CCOCC3)cc2)n1` [CYC116] are the same in relative viability: 102 ± 3.6% for the first, 102 ± 4.6% for the second.

`COc1ccccc1N1CCN(CCN2C(=O)CC3(CCCC3)CC2=O)CC1` [BMY 7378] and `COc1cc(Nc2c(C#N)cnc3cc(OCCCN4CCN(C)CC4)c(OC)cc23)c(Cl)cc1Cl` [Bosutinib (SKI-606)] are within error of each other in relative viability: 110 ± 3.7% for the first, 109 ± 3.2% for the second.

First: CC(C)c1cnn2c(NCc3ccccc3)cc(NCCCCCCN)nc12 [BS-181]
Second: CC[C@H](Nc1ncnc2[nH]cnc12)c1nc2cccc(F)c2c(=O)n1-c1ccccc1 [CAL-101]
The relative viability of the first is lower: 107 ± 3.7% for the first, 117.5 ± 0.72% for the second.

Going from `NC(=O)c1ccc(I)c([N+](=O)[O-])c1` [BSI-201] to `CC(O)(CS(=O)(=O)c1ccc(F)cc1)C(=O)Nc1ccc(C#N)c(C(F)(F)F)c1` (configuration not stated) [Bicalutamide (Casodex)], the relative viability falls from 130 ± 0.89% to 119 ± 3.4%.

Compared with `O=C(O)[C@H]1O[C@@H](Oc2cc3oc(-c4ccccc4)cc(=O)c3c(O)c2O)[C@H](O)[C@@H](O)[C@@H]1O` [Baicalin], `CCOC(=O)[C@H](CCc1ccccc1)N[C@H]1CCc2ccccc2N(CC(=O)O)C1=O` [Benazepril HCl] is lower in relative viability: 108 ± 3.8% for the first, 82 ± 2.6% for the second.

Going from `NC(CO)C(=O)NNCc1ccc(O)c(O)c1O` (configuration not stated) [Benserazide HCl] to `CCCCN1CCCCC1C(=O)Nc1c(C)cccc1C` (configuration not stated) [Bupivacaine HCl (marcain)], the relative viability rises from 93.8 ± 2.6% to 104 ± 4.4%.

Going from `CC(C[N+](C)(C)C)OC(N)=O` (configuration not stated) [Bethanechol chloride] to `O=C(O)c1ccc2c(c1)nc(Nc1cccc(Cl)c1)c1ccncc12` [CX-4945], the relative viability falls from 105 ± 3.1% to 93.1 ± 1.6%.

Same assay, conditions: 0.01 µM; serum: 10% FBS; 72 h

`CCN1CCN(C(=O)Cc2ccc(Nc3ncc(F)c(Nc4ccc(C(=O)Nc5ccccc5Cl)cc4)n3)cc2)CC1` [Aurora A Inhibitor I] and `COC(=O)c1ccc2c(C(=Nc3ccc(N(C)C(=O)CN4CCN(C)CC4)cc3)c3ccccc3)c(O)[nH]c2c1` [BIBF1120 (Vargatef)] are within error of each other in relative viability: 114 ± 3.2% for the first, 112 ± 1.5% for the second.

Compared with `CC(C)c1cc(C(C)C)c(CC(=O)NS(=O)(=O)Oc2c(C(C)C)cccc2C(C)C)c(C(C)C)c1` [Avasimibe (CI-1011)], `CC(O)(CS(=O)(=O)c1ccc(F)cc1)C(=O)Nc1ccc(C#N)c(C(F)(F)F)c1` (configuration not stated) [Bicalutamide (Casodex)] is higher in relative viability: 95.2 ± 2.4% for the first, 112 ± 1.2% for the second.

`CNC(=O)c1ccccc1Sc1ccc2c(/C=C/c3ccccn3)n[nH]c2c1` [Axitinib] and `C/C(=C\C(=O)Nc1ccccc1C(=O)O)c1ccc2ccccc2c1` [BIBR1532] are within error of each other in relative viability: 113 ± 0.88% for the first, 112 ± 5.2% for the second.

`CN1CCCC(n2nc(Cc3ccc(Cl)cc3)c3ccccc3c2=O)CC1` (configuration not stated) [Azelastine HCl (Astelin)] and `Cc1ccc(-n2nc(C(C)(C)C)cc2NC(=O)Nc2ccc(OCCN3CCOCC3)c3ccccc23)cc1` [BIRB 796] are within error of each other in relative viability: 103 ± 4.9% for the first, 98.8 ± 4.4% for the second.

`CNC(=O)c1cc(Oc2ccc(NC(=O)Nc3ccc(Cl)c(C(F)(F)F)c3)c(F)c2)ccn1` [BAY 73-4506 (Regorafenib)] and `O=C(O)c1ccc2c(c1)nc(Nc1cccc(Cl)c1)c1ccncc12` [CX-4945] are within error of each other in relative viability: 99.5 ± 0.71% for the first, 102 ± 2.2% for the second.

Going from `CC[C@@H]1C(=O)N(C)c2cnc(Nc3ccc(C(=O)N[C@H]4CC[C@H](N5CCN(CC6CC6)CC5)CC4)cc3OC)nc2N1C(C)C` [BI6727 (Volasertib)] to `CC[C@@H]1C(=O)N(C)c2cnc(Nc3ccc(C(=O)NC4CCN(C)CC4)cc3OC)nc2N1C1CCCC1` [BI 2536], the relative viability falls from 59.6 ± 3% to 47.9 ± 1.7%.

`Cn1c(CNc2ccc(C(=N)N)cc2)nc2cc(C(=O)N(CCC(=O)O)c3ccccn3)ccc21` [BIBR 953] and `CCCCCCOC(=O)NC(=N)c1ccc(NCc2nc3cc(C(=O)N(CCC(=O)OCC)c4ccccn4)ccc3n2C)cc1` [BIBR-1048] are the same in relative viability: 90.2 ± 2.2% for the first, 90.2 ± 3% for the second.

Compared with `CN(C)C/C=C/C(=O)Nc1cc2c(Nc3ccc(F)c(Cl)c3)ncnc2cc1O[C@H]1CCOC1` [BIBW2992 )Tovok)], `COc1cc(Nc2c(C#N)cnc3cc(OCCCN4CCN(C)CC4)c(OC)cc23)c(Cl)cc1Cl` [Bosutinib (SKI-606)] is lower in relative viability: 110 ± 1.6% for the first, 92.7 ± 6.8% for the second.

`COc1c(C)cnc(Cn2cnc3c(Cl)nc(N)nc32)c1C` [BIIB021] and `CC[C@H](Nc1ncnc2[nH]cnc12)c1nc2cccc(F)c2c(=O)n1-c1ccccc1` [CAL-101] are within error of each other in relative viability: 117 ± 4.1% for the first, 111 ± 5.8% for the second.

Compared with `Nc1cc(C(F)(F)F)c(-c2cc(N3CCOCC3)nc(N3CCOCC3)n2)cn1` [BKM120 (NVP-BKM120)], `Cc1nc(N)sc1-c1ccnc(Nc2ccc(N3CCOCC3)cc2)n1` [CYC116] is higher in relative viability: 95.9 ± 2.2% for the first, 113.07 ± 0.029% for the second.

Going from `COc1ccccc1N1CCN(CCN2C(=O)CC3(CCCC3)CC2=O)CC1` [BMY 7378] to `CCOC(=O)[C@H](CCc1ccccc1)N[C@H]1CCc2ccccc2N(CC(=O)O)C1=O` [Benazepril HCl], the relative viability falls from 100 ± 3.8% to 83 ± 5.2%.

`CC(C)c1cnn2c(NCc3ccccc3)cc(NCCCCCCN)nc12` [BS-181] and `O=C(O)[C@H]1O[C@@H](Oc2cc3oc(-c4ccccc4)cc(=O)c3c(O)c2O)[C@H](O)[C@@H](O)[C@@H]1O` [Baicalin] are the same in relative viability: 106.4 ± 0.99% for the first, 106 ± 2.6% for the second.

Going from `NC(=O)c1ccc(I)c([N+](=O)[O-])c1` [BSI-201] to `NC(CO)C(=O)NNCc1ccc(O)c(O)c1O` (configuration not stated) [Benserazide HCl], the relative viability falls from 126.6 ± 0.33% to 103 ± 3.5%.

Going from `CC(C[N+](C)(C)C)OC(N)=O` (configuration not stated) [Bethanechol chloride] to `CCCCN1CCCCC1C(=O)Nc1c(C)cccc1C` (configuration not stated) [Bupivacaine HCl (marcain)], the relative viability falls from 104 ± 2.9% to 93.47 ± 0.53%.
